Experimental data as given in ChEMBL document CHEMBL1201862, “PubChem BioAssay data set” (2004).
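1) Cells in 96-well plates. 2) Compound, 48 h, 5 concentrations. 3) Linear interpolation between surrounding doses. 4) Unreached endpoint = highest concentration. GI50 marks 50% less growth.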 The source made the active and inactive calls. No stated cut-off is given here; in the data, active = GI50 up to about 1.1 µM and inactive = higher.

How the values were obtained:
Experiment in all cases: growth of human tumour cells (NCI), 48 h
OVCAR-5 = tested on: OVCAR-5
HL-60 = tested on: HL-60
HCT-116 = tested on: HCT-116
SK-MEL-5 = tested on: SK-MEL-5
CAKI-1 = tested on: CAKI-1
OVCAR-4 = tested on: OVCAR-4
M14 = tested on: M14
SF-295 = tested on: SF-295
SK-MEL-2 = tested on: SK-MEL-2
Malme-3M = tested on: Malme-3M
MDA-N = tested on: MDA-N
MDA-MB-231 = tested on: MDA-MB-231
SW-620 = tested on: SW-620
ACHN = tested on: ACHN
MOLT-4 = tested on: MOLT-4
K562 = tested on: K562
SNB-19 = tested on: SNB-19
NCI-H460 = tested on: NCI-H460
NCI-H522 = tested on: NCI-H522
UO-31 = tested on: UO-31

Compound | GI50 (OVCAR-5) | GI50 (HL-60) | GI50 (HCT-116) | GI50 (SK-MEL-5) | GI50 (CAKI-1) | GI50 (OVCAR-4) | GI50 (M14) | GI50 (SF-295) | GI50 (SK-MEL-2) | GI50 (Malme-3M) | GI50 (MDA-N) | GI50 (MDA-MB-231) | GI50 (SW-620) | GI50 (ACHN) | GI50 (MOLT-4) | GI50 (K562) | GI50 (SNB-19) | GI50 (NCI-H460) | GI50 (NCI-H522) | GI50 (UO-31)
C=Cc1c(C)c(OC)cc2c1Oc1ccc(OC)c(C)c1CC2 | > 100 µM (inactive) | > 100 µM (inactive) | > 100 µM (inactive) | 53.6 µM (inactive) | > 100 µM (inactive) | > 100 µM (inactive) | > 100 µM (inactive) | > 100 µM (inactive) | > 100 µM (inactive) | > 100 µM (inactive) | > 100 µM (inactive) | > 100 µM (inactive) | > 100 µM (inactive) | > 100 µM (inactive) | > 100 µM (inactive) | > 100 µM (inactive) | > 100 µM (inactive) | > 100 µM (inactive) | 88.5 µM (inactive) | > 100 µM (inactive)
O=C1c2ccccc2CN1c1ccc(OCCN2CCCCC2)cc1 | > 10 µM (inactive) | > 10 µM (inactive) | > 10 µM (inactive) | > 10 µM (inactive) | > 10 µM (inactive) | > 10 µM (inactive) | > 10 µM (inactive) | > 10 µM (inactive) | > 10 µM (inactive) | > 10 µM (inactive) | > 10 µM (inactive) | > 10 µM (inactive) | > 10 µM (inactive) | > 10 µM (inactive) | > 10 µM (inactive) | > 10 µM (inactive) | > 10 µM (inactive) | > 10 µM (inactive) | > 10 µM (inactive) | > 10 µM (inactive)
COc1cc(C2c3cc4c(cc3OC(N3CCCCC3)C2C)OCO4)cc(OC)c1OC (stereo not given) | 12.7 µM (inactive) | 2.33 µM (inactive) | 3.37 µM (inactive) | 2.62 µM (inactive) | 2.46 µM (inactive) | 13 µM (inactive) | 2.83 µM (inactive) | 1.75 µM (inactive) | 3.45 µM (inactive) | 5.83 µM (inactive) | 0.723 µM (active) | 4.98 µM (inactive) | 3.2 µM (inactive) | 6.79 µM (inactive) | 3.9 µM (inactive) | 2.44 µM (inactive) | 3.24 µM (inactive) | 3.52 µM (inactive) | 2.49 µM (inactive) | 5.02 µM (inactive)
COc1cc2cc(C(=O)N3CC(CCl)c4ccccc43)[nH]c2c(OC)c1OC (stereo not given) | > 100 µM (inactive) | 16.3 µM (inactive) | 67.9 µM (inactive) | 24.7 µM (inactive) | 61.2 µM (inactive) | > 94.4 µM (inactive) | 62.5 µM (inactive) | 70.3 µM (inactive) | 62.5 µM (inactive) | 36.5 µM (inactive) | 40.5 µM (inactive) | > 100 µM (inactive) | 60.1 µM (inactive) | > 77.3 µM (inactive) | 13.4 µM (inactive) | 3.1 µM (inactive) | > 100 µM (inactive) | 17.5 µM (inactive) | 17.2 µM (inactive) | 47.4 µM (inactive)
CC1=C(C#N)C(=O)N(/N=C/c2ccc(Cl)cc2)C(=O)/C1=c1\o/c(=C2/C(=O)N(/N=C/c3ccc(Cl)cc3)C(=O)C(C#N)=C2C)c2nccnc12 | > 100 µM (inactive) | 84.5 µM (inactive) | 76.7 µM (inactive) | 96.6 µM (inactive) | > 100 µM (inactive) | 57.5 µM (inactive) | > 100 µM (inactive) | > 100 µM (inactive) | > 100 µM (inactive) | > 100 µM (inactive) | 77.3 µM (inactive) | > 100 µM (inactive) | > 100 µM (inactive) | > 100 µM (inactive) | 88.3 µM (inactive) | 69.7 µM (inactive) | > 100 µM (inactive) | > 100 µM (inactive) | > 100 µM (inactive) | 85.7 µM (inactive)
Cc1cccc2c1NC(=O)/C2=N\Nc1ccccc1[N+](=O)[O-] | 26.2 µM (inactive) | 78.5 µM (inactive) | 6.82 µM (inactive) | 6.93 µM (inactive) | 8.09 µM (inactive) | 4.05 µM (inactive) | 19.4 µM (inactive) | 4.24 µM (inactive) | 16.7 µM (inactive) | 9.64 µM (inactive) | 20.1 µM (inactive) | 2.58 µM (inactive) | 9.82 µM (inactive) | 2.97 µM (inactive) | 21.2 µM (inactive) | 17.5 µM (inactive) | 30.5 µM (inactive) | 6.9 µM (inactive) | 0.871 µM (active) | 3.55 µM (inactive)
CC(C)=CCc1c(OC(=O)c2c(C)cc(O)cc2O)cc(CO)c(CO)c1O | 20.4 µM (inactive) | 4.5 µM (inactive) | 20.9 µM (inactive) | 14.8 µM (inactive) | 5.48 µM (inactive) | 16 µM (inactive) | 20.8 µM (inactive) | 17.2 µM (inactive) | 21.3 µM (inactive) | 17.5 µM (inactive) | 19.1 µM (inactive) | 15.5 µM (inactive) | > 10 µM (inactive) | 14.4 µM (inactive) | 16.3 µM (inactive) | 7.62 µM (inactive) | 8.07 µM (inactive) | 17.6 µM (inactive) | 18 µM (inactive) | 12.2 µM (inactive)
